{
  "source": "patent US20110318768A1",
  "about": "“METHOD FOR DETERMINING SENSITIVITY OF TUMOR CELLS TO TYROSINE KINASE INHIBITOR AND COMPUTER PROGRAM PRODUCT” (SYSMEX CORPORATION, priority 2010, published 2011)",
  "key": {"[1]": {"tested_on": "tyrosine kinase of BT-474", "settings": "US 2011027809; cited from earlier work"}, "[2]": {"tested_on": "tyrosine kinase in measurement samples of lapatinib-sensitive cell line group", "test": "Tyrosine kinase activity inhibition, group comparison (FIG. 3)", "assay_type": "biochemical", "method": "(§1) After shaking the measuring plate at 37° C. and 400 rpm for 60 minutes, the solution was removed from the measuring plate, and the wells were washed with 300 μl of TBS-T three times. 100 μl of Starting Block T20 (TBS) (#37543: Pierce) as a blocking solution was added to the wells, followed by blocking at 37° C. and 400 rpm for 10 minutes. The blocking solution was removed from the measuring plate. 100 μl of a solution prepared by diluting HRP-labeled anti-phosphorylated tyrosine antibody (#sc-508 HRP: Santa Cruz) with Starting Block T20 (TBS) at a ratio of 1:1000 was added to the wells, followed by shaking at 37° C. and 400 rpm for 90 minutes. Then, the wells were washed with 300 μl of TBS-T five times. […] Thereafter, the emission from the wells was measured by a GENios microplate reader (manufactured by Tecan Trading AG). The inhibitory capacity of the kinase inhibitors in the measurement sample was evaluated by an inhibition rate (value of “100−{(measurement value of activity in the presence of inhibitors)/(measurement value of activity in the absence of inhibitors)}×100”) calculated base on a ratio of the measurement value of tyrosine kinase activity in the presence of the inhibitors and the measurement value of the control (in the absence of the inhibitors). […]"}, "[3]": {"tested_on": "tyrosine kinase in measurement samples of lapatinib-insensitive cell line group", "test": "Tyrosine kinase activity inhibition, group comparison (FIG. 3)", "assay_type": "biochemical", "method": "as §1"}},
  "data": [
    {"smiles": "COc1cc2ncnc(Nc3ccc(Oc4ccccc4)cc3)c2cc1OC", "note": "[Inhibitor 10, 4-(4′-phenoxyanilino)-6,7-dimethoxyquinazoline]", "values": [
      {"measurement": "tyrosine kinase activity inhibitory effects caused by the Src inhibitor", "setting": "[1]", "value": "high"},
      {"measurement": "inhibitory effect of the Src inhibitor on the kinase activity", "setting": "[2]", "value": "low"},
      {"measurement": "inhibitory effect of the Src inhibitor on the kinase activity", "setting": "[3]", "value": "high"}
    ]}
  ]
}
